{
  "source": "patent US20130023504A1",
  "about": "“Modulation of Prostaglandin/Cyclooxygenase Metabolic Pathways” (HUNTER-FLEMING LIMITED, priority 2006, published 2013)",
  "key": {"[1]": {"test_system": "rats with DSS-induced colitis", "test": "DSS-induced colitis in rats, 7-day i.p. pre-treatment", "type": "in vivo, rat", "conditions": "for Body weight: DSS (5%) day 7-14", "description": "All experimental protocols and procedures were in agreement with the directive 86/609/CEE of the European Community, for the use of laboratory animals. Male Wistar rats (180-200 g), purchased from Charles River (L'Arbresle, France) were fed with rodent laboratory chow and were given water ad libitum.\nAfter a 7-day adaptation period, animals were divided into two control groups (sham-control and 7β-hydroxy-EPIA-treated control group and two colitis groups (colitis and 7β-hydroxy-EPIA-treated colitis). 7β-Hydroxy-EPIA (0.01, 0.1, and 1 mg/kg body weight dissolved in DMSO) or DMSO alone (vehicle) was administered i.p. once a day for 7 days, from day 0 to day 7. Colitis was induced from day 7 to 14 by addition of DSS (molecular weight 36-50 kDa; MP Biomedicals, France) to drinking water. The two control groups received tap water only.\nAt day 9, 11, 13, 14, body weight, colon length, stool consistency, were recorded and fresh rectal bleeding evaluated by ocular inspection. The severity of colonic damage was blindly scored as described by Mabley et al., 2001, Inflamm. Res.; 50: 561-569) (0: well-formed pellets and no colon damage; 1: colon with a small amount of blood present mixed with feces; 2: colon with large amount of blood present with faeces; 3: colon filled with blood and no faeces).\nA portion of the proximal colon (1 cm) was fixed in 4% formaldehyde (Labonord, Templemars, France) and embedded in paraffin. Tissue sections (5 μm) were prepared, thereafter cleared, hydrated and stained either with hematoxylin/eosin or with Alcian blue according to standard protocols for histological evaluation of colonic damage and mucus goblet cells content, respectively.\nThe colon was opened along the mesenteric border, and the epithelial cells were scrapped away with the blunt edge of a glass slide then weighed, washed and centrifuged. The pellet was homogenized in 9 volumes TKE buffer (10 mM Tris-HCl; 150 mM KCl; 1 mM EDTA; 0.25 mM PMSF, pH 7.4) and then frozen at −80° C. until further use. The protein content of homogenates were measured according to Lowry et al. (J Biol Chem 1951; 193: 265-74).\nMPO activity was assessed in homogenates using the o-dianisidine method of Krawisz et al. (Gastroenterology 1984; 87(6):1344-50) with the modifications of Pelissier et al. (Steroids 2006; 71(3):240-8). MPO activity was expressed as the amount of enzyme necessary to produce a per minute change in absorbance at 460 nm using the extinction coefficient for oxidized o-dianisidine (1.13×10^4 mol^−1.cm^−1).\nLipid peroxidation (Tbars) was measured by a modification by Albrecht et al., (1992, Toxicol. Lett; 63: 91-96) of the method described by Ohkawa et al. (Anal Biochem 1979; 95:315-58). Absorbance of the red 1:2 adduct malondialdehyde-thiobarbituric acid (Sigma-Aldrich, St Quentin-Fallavier, France) was measured at 532 nm (extinction coefficient used: 0.156 μmol^−1 cm^−1). The carbonyl contents in oxidized proteins (Prot CO) were assessed by the method of Levine et al. (Methods Enzymol 1990; 186:464-78). The non-protein sulfhydryl group content (mostly GSH) was taken as the anti-oxidant defense marker in homogenates and determined by the method of Sedlak and Lindsay (Anal Biochem 1968; 25(1):192-205).\nCommercially available EIA kits were used for the determination of PGE2 levels (Oxford Biomedical Research, UK) and 15d-PGJ2 levels (Assay designs, Euromedex, France) in colonic supernatants obtained from fresh homogenates. Measurement of PGD2 levels was obtained using the prostaglandin D2-MOX EIA kit (Cayman Chemical, Euromedex). In this case, and prior to assay, the fresh samples were immediately treated with the MOX-HCl reagent which converted PGD2 into PGD2-MOX, thus preventing any further chemical degradation.\nTotal RNA from fresh colonic samples (300 mg) was extracted using Trizol Reagent (Invitrogen, Cergy-Pontoise, France). […]"}, "[2]": {"test_system": "collagen-induced arthritis", "test": "Collagen-induced arthritis (CII/CFA), histopathology, clinical score, knee homogenate prostaglandins", "type": "in vivo, mouse"}},
  "note": "Marks after values point to notes of the source that are not given here.",
  "data": [
    {"smiles": "CC12CCC3C(C1CCC2=O)[C@@H](O)C[C@H]1C[C@@H](O)CCC31C", "note": "(stereo partly drawn) [Compound 7β-OH-EPIA, 7β-hydroxy-EPIAndrosterone]", "values": [
      {"measurement": "colitis damage and tissue inflammation", "setting": "[1]; 0.01 mg/kg", "value": "completely prevented"},
      {"measurement": "Body weight", "setting": "[1]; 0.01 mg/kg body weight i.p. day 0-7, day 14", "value": "297.5 ± 9.5^a g"},
      {"measurement": "DSS-induced production of colonic PGE2", "setting": "[1]; 0.01 mg/kg from D0 to D7", "value": "completely prevented"},
      {"measurement": "colonic level of 15d-PGJ2", "setting": "[1]; 0.01 mg/kg from D0 to D7, DSS", "value": "dramatically increasing"},
      {"measurement": "Colon length", "setting": "[1]; 0.01 mg/kg, day 14", "value": "16 ± 0.01^c cm"},
      {"measurement": "Epididymis weight", "setting": "[1]; 0.01 mg/kg, day 14", "value": "2.5 ± 0.03^a g"},
      {"measurement": "Liver weight", "setting": "[1]; 0.01 mg/kg, day 14", "value": "12.1 ± 0.3^a g"},
      {"measurement": "Spleen weight", "setting": "[1]; 0.01 mg/kg, day 14", "value": "0.8 ± 0.02^a g"},
      {"measurement": "Body weight", "setting": "[1]; 0.1 mg/kg body weight i.p. day 0-7, day 14", "value": "272.1 ± 6^b g"},
      {"measurement": "Colon length", "setting": "[1]; 0.1 mg/kg, day 14", "value": "15.6 ± 0.3^c cm"},
      {"measurement": "Epididymis weight", "setting": "[1]; 0.1 mg/kg, day 14", "value": "1.9 ± 0.14^b g"},
      {"measurement": "Liver weight", "setting": "[1]; 0.1 mg/kg, day 14", "value": "12.3 ± 0.6^a g"},
      {"measurement": "Spleen weight", "setting": "[1]; 0.1 mg/kg, day 14", "value": "1.03 ± 0.2^a g"},
      {"measurement": "Body weight", "setting": "[1]; 1 mg/kg body weight i.p. day 0-7, day 14", "value": "267.3 ± 7.7^b g"},
      {"measurement": "Colon length", "setting": "[1]; 1 mg/kg, day 14", "value": "14.2 ± 0.6^b cm"},
      {"measurement": "Epididymis weight", "setting": "[1]; 1 mg/kg, day 14", "value": "1.9 ± 0.1^b g"},
      {"measurement": "Liver weight", "setting": "[1]; 1 mg/kg, day 14", "value": "11.9 ± 0.4^a g"},
      {"measurement": "Spleen weight", "setting": "[1]; 1 mg/kg, day 14", "value": "0.82 ± 0.06^a g"},
      {"measurement": "diarrhea and rectal bleeding", "setting": "[1]; 0.01, 0.1 mg/kg, day 14", "value": "suppression"},
      {"measurement": "MPO activity in colonic mucosa", "setting": "[1]; all dose levels, 0.01, 0.1 and 1 mg/kg, vs colitis group", "value": "significantly decreased"},
      {"measurement": "oxidative stress parameters (Prot CO, Tbars, GSH) in colonic tissue", "setting": "[1]; day 13 and 14, all dose levels", "value": "restored"},
      {"measurement": "increase in COX-2 and mPGES-1 mRNA synthesis by DSS", "setting": "[1]; pre-treatment day 0 to day 7", "value": "suppressed"},
      {"measurement": "15d-PGJ2 in knee homogenates", "setting": "[2]; 0.1 μg/kg day, D 20-50, Day 50", "value": "78.96 ± 22.18", "unit": "pg/mL"},
      {"measurement": "Clinical Score (joint swelling)", "setting": "[2]; 0.1 μg/kg day, D 20-50, Day 50", "value": "3.10 ± 2.96"},
      {"measurement": "PGE2/15d-PGJ2", "setting": "[2]; 0.1 μg/kg day, D 20-50, Day 50", "value": 1.21},
      {"measurement": "PGE2 in knee homogenates", "setting": "[2]; 0.1 μg/kg day, D 20-50, Day 50", "value": "95.61 ± 34.65", "unit": "pg/mL"},
      {"measurement": "Histopathology Score (both paws on Day 50)", "setting": "[2]; 1.0 μg/kg s.c. daily, treatment from Day 20-50", "value": 0.60},
      {"measurement": "animals completely clear of histopathological change in the paw joints", "setting": "[2]; 10.0 μg/kg, treatment day 0 to day 30", "value": "9 out of 10"},
      {"measurement": "Histopathology Score (both paws on Day 50)", "setting": "[2]; 10.0 μg/kg, treatment from Day 0-30", "value": "0.2*"},
      {"measurement": "Histopathology Score (both paws on Day 50)", "setting": "[2]; 10.0 μg/kg, treatment from Day 20-50", "value": 0.44},
      {"measurement": "Histopathology Score (both paws on Day 50)", "setting": "[2]; 100.0 μg/kg, treatment from Day 20-50", "value": 0.85}
    ]}
  ]
}
